Measurements taken from PMC9508125, “The evolutionary advantage of an aromatic clamp in plant family 3 glycoside exo-hydrolases” (Nature Communications, 2022).
Residue numbers refer to the chain shown, from its start.

Legend:
Type in all cases: biochemical
WT HvExoI [1] = target: T1, WT HvExoI (Hordeum vulgare, UniProt Q9XEI3); assay: Steady-state apparent kinetic constants with substrates; details: substance is the substrate
Procedure: Dependency of activities of WT and mutant HvExoI on pH (McIlvaine buffers in the pH range of 3.5–8.5 at 30 °C) and temperature (100 mM sodium acetate buffer, pH 5.25, temperature range 0–80 °C, 15 min incubations) were determined using 0.2% (w/v) 4NP-Glc[21],[59]. Relative rates of hydrolysis of β-linked poly-, oligosaccharides, and aryl-glucosides were determined using near-homogenous HvExoI at 50 pmoles. […] Kinetic parameters were calculated from the analyses of Michaelis-Menten plots with Grafit 7.0.3[62] and processed by a proportional weighted fit, using nonlinear regression. The relative rates of hydrolysis, kinetic, and inhibition data were rounded to one or two decimal points (Supplementary Tables 2–4).

HvExoI W434A mutant = target: T2, HvExoI W434A mutant (Hordeum vulgare, UniProt Q9XEI3, W459A); assay: Relative rates of hydrolysis of poly-, oligosaccharides and aryl-glycosides; details: substance is the substrate, nd = activity not detected
T2 sequence (Q9XEI3 26-630 W459A): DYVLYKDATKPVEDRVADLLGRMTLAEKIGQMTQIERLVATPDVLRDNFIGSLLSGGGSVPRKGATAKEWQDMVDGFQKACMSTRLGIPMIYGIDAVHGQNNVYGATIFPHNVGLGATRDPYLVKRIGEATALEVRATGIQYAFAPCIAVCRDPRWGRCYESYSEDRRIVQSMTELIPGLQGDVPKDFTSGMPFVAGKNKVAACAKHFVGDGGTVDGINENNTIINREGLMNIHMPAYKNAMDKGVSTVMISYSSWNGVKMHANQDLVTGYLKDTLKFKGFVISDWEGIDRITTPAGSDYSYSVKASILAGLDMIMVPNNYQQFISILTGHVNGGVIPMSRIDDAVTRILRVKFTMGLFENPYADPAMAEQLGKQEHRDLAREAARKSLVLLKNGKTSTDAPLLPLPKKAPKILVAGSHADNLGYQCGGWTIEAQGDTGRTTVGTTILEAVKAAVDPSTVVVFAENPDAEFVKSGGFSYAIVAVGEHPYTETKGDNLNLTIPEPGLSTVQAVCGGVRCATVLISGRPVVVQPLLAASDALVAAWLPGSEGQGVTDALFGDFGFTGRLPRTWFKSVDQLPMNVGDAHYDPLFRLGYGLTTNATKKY
Method in brief: (§1)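 Near-homogeneous HvExoI at 50 pmoles was used to compare hydrolysis rates across β-linked glycosides. Kinetic parameters were obtained by weighted nonlinear Michaelis-Menten regression.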

HvExoI W286F mutant = target: T3, HvExoI W286F mutant (Hordeum vulgare, UniProt Q9XEI3, W311F); assay: as above; details: substance is the substrate, nd = activity not detected
T3 sequence (Q9XEI3 26-630 W311F): T2 sequence (Q9XEI3 26-630 W459A) with W286F, A434W
Method in brief: as §1

HvExoI W434Y mutant = target: T4, HvExoI W434Y mutant (Hordeum vulgare, UniProt Q9XEI3, W459Y); assay: as above; details: substance is the substrate, nd = activity not detected
T4 sequence (Q9XEI3 26-630 W459Y): T2 sequence (Q9XEI3 26-630 W459A) with A434Y
Method in brief: as §1

[2] = target: T5, HvExoI W286F/W434A mutant (Hordeum vulgare, UniProt Q9XEI3, W311F/W459A); assay: as above; details: substance is the substrate, nd = activity not detected
T5 sequence (Q9XEI3 26-630 W311F/W459A): T2 sequence (Q9XEI3 26-630 W459A) with W286F
Method in brief: as §1

WT HvExoI [3] = target: T1, WT HvExoI; assay: as above; details: substance is the substrate, HvExoI at 50 pmoles, nd = activity not detected
Method in brief: as §1

T1 sequence (Q9XEI3 entry or part of it): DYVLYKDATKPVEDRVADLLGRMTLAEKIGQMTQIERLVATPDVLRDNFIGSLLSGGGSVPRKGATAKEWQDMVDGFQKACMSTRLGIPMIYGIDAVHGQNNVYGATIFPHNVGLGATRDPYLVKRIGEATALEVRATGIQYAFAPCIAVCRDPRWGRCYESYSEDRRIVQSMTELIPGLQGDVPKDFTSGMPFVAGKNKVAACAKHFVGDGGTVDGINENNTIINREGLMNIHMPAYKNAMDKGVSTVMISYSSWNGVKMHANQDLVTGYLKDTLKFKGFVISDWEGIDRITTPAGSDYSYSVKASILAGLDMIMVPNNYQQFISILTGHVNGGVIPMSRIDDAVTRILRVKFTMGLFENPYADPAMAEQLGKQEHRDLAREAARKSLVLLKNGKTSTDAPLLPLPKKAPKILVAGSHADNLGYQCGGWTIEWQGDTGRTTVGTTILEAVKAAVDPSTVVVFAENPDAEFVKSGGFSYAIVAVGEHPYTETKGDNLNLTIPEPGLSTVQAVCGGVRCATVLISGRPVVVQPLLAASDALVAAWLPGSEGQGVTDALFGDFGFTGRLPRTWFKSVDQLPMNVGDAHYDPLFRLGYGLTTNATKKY

Row | Compound | Km (WT HvExoI [1]) [µM] | kcat (WT HvExoI [1]) [s⁻¹] | Activity (relative rate of hydrolysis) (HvExoI W434A mutant) | Activity (relative rate of hydrolysis) (HvExoI W286F mutant) [μmole/min per mg protein] | Activity (relative rate of hydrolysis) (HvExoI W434Y mutant) [μmole/min per mg protein] | Activity (relative rate of hydrolysis) [2] [μmole/min per mg protein] | Activity (relative rate of hydrolysis) (WT HvExoI [3]) [μmole/min per mg protein]
1 | OC[C@H]1O[C@@H](O[C@H]2[C@H](O)[C@@H](CO)OC(O)[C@@H]2O)[C@H](O)[C@@H](O)[C@@H]1O (stereo partly shown) [Laminaribiose] | 1300 ± 120 | 54.2 ± 6.9 | 0.5 ± 0.03 μmole/min per mg protein | 0.6 ± 0.04 | 1.1 ± 0.1 | 0.1 ± 0.001 | –
2 | OC[C@H]1O[C@@H](O[C@@H]2[C@@H](O)[C@H](O[C@@H]3[C@@H](O)[C@H](O[C@H]4[C@H](O)[C@@H](CO)OC(O)[C@@H]4O)O[C@H](CO)[C@H]3O)O[C@H](CO)[C@H]2O)[C@H](O)[C@@H](O)[C@@H]1O (stereo partly shown) [Laminaritetraose] | – | – | 1.1 ± 0.1 μmole/min per mg protein | 1.1 ± 0.1 | 1.3 ± 0.1 | 0.2 ± 0.01 | 12.3 ± 0.5
3 | OC[C@H]1O[C@@H](O[C@@H]2[C@@H](O)[C@H](O[C@@H]3[C@@H](O)[C@H](O[C@@H]4[C@@H](O)[C@H](O[C@@H]5[C@@H](O)[C@H](O)O[C@H](CO)[C@H]5O)O[C@H](CO)[C@H]4O)O[C@H](CO)[C@H]3O)O[C@H](CO)[C@H]2O)[C@H](O)[C@@H](O)[C@@H]1O [Laminaripentaose] | – | – | 1.0 ± 0.1 μmole/min per mg protein | 1.0 ± 0.01 | 1.5 ± 0.1 | 0.2 ± 0.02 | 11.7 ± 0.5
4 | OC[C@H]1O[C@@H](O[C@@H]2[C@@H](O)[C@H](O[C@H]3[C@H](O)[C@@H](CO)OC(O)[C@@H]3O)O[C@H](CO)[C@H]2O)[C@H](O)[C@@H](O)[C@@H]1O (stereo partly shown) [Laminaritriose] | – | – | 0.9 ± 0.1 μmole/min per mg protein | 1.3 ± 0.01 | 1.4 ± 0.2 | 0.1 ± 0.002 | 12.4 ± 0.3
5 | laminarin | 200 ± 20 | 42.1 ± 7.6 | no activity | 1.1 ± 0.1 | 0.7 ± 0.03 | 0.1 ± 0.003 | 54.4 ± 0.5
